# According to patent US20220364989A1, “METHOD FOR MEASURING PHOTOTOXICITY OR PHOTOALLERGY AND REAGENT FOR USE THEREIN” (FUJIFILM Corporation, priority 2018, published 2022):
# Like-named read-outs stand apart in the source and are kept apart here.
# Tests used:
# [1] = cited from earlier work
# [2] = cited from earlier work; remark: listed apart in the source
# [3] = Average score of NAC and NAL depletion and phototoxicity or photoallergy determination, fluorescence detection
# [4] = Average score of NAC and NAL depletion and phototoxicity or photoallergy determination, UV detection; conditions: for Average score (%) without light irradiation / Average score (%) under light irradiation: average of NAC and NAL depletion
# [5] = NAL depletion under and without ultraviolet irradiation, HPLC with fluorescence detection (284 nm excitation, 333 nm fluorescence); conditions: for NAL Depletion (%): without light irradiation
# [6] = NAL depletion under and without ultraviolet irradiation, HPLC with UV detection (281 nm); conditions: for NAL Depletion (%) without light irradiation: 25° C. 24 hours light-shielded; for NAL Depletion (%) without light irradiation / NAL Depletion (%) under light irradiation: test substance solution 1 mmol/L; for NAL Depletion (%) under light irradiation: 2,000 μW/cm^2 for 1 hour then 25° C. 23 hours
# [7] = NAC depletion under and without ultraviolet irradiation, HPLC with fluorescence detection (284 nm excitation, 333 nm fluorescence); conditions: for NAC Depletion (%): without light irradiation
# [8] = NAC depletion under and without ultraviolet irradiation, HPLC with UV detection (281 nm); conditions: for NAC Depletion (%) without light irradiation: 25° C. 24 hours light-shielded; for NAC Depletion (%) without light irradiation / NAC Depletion (%) under light irradiation: test substance solution 1 mmol/L; for NAC Depletion (%) under light irradiation: 2,000 μW/cm^2 for 1 hour then 25° C. 23 hours
# [9] = 24 h, 0.25 mmol/L, pH 8
# [10] = 24 h, 0.25 mmol/L, pH 10.2
# [11] = under light irradiation, single compound
# [12] = without light irradiation, single compound
# [13] = 25° C. 24 hours light-shielded, test substance solution 1 mmol/L
# [14] = 2,000 μW/cm^2 for 1 hour then 25° C. 23 hours, test substance solution 1 mmol/L
# [15] = average of NAC and NAL depletion
Compound,Difference in depletion (under light irradiation - without light irradiation) NAL (%) ([5]; single compound),NAL Depletion (%) ([5]; single compound),In vivo phototoxicity ([1]; reported in References 1 to 3),In vivo photoallergy ([2]; reported in References 1 and 2),NAL Depletion (%) without light irradiation [6] [%],NAL Depletion (%) under light irradiation [6] [%],Difference in depletion (under light irradiation - without light irradiation) Average score (%) ([3]; single compound),"Average score (%) [3, 12] [%]",Difference in depletion (under light irradiation - without light irradiation) NAC (%) ([7]; single compound),NAC Depletion (%) ([7]; single compound),Average score (%) without light irradiation [4] [%],Difference in depletion (under light irradiation - without light irradiation) NAC (%) [8] [%],NAC Depletion (%) without light irradiation [8] [%],NAC Depletion (%) under light irradiation [8] [%],Difference in depletion (under light irradiation - without light irradiation) NAL (%) [6] [%],Difference in depletion (under light irradiation - without light irradiation) Average score (%) [4] [%],Average score (%) under light irradiation [4] [%],other results
"CC(O)CO (racemic) [No. 54, Propylene glycol]",,,,,,,,,,,,,,,,,,"In vivo phototoxicity ([1]; in vivo): Negative; In vivo photoallergy ([2]; in vivo): Negative; Average score (%) [3, 11]: 0.3%; Average score (%) [4, 11]: 0.1%"
CC(CN1c2ccccc2Sc2ccccc21)N(C)C.Cl (racemic) [compound 14],6.6,0.8,Positive,Positive,3.5,−438.6,41.5,12.2,76.4,23.6,15.6,61.9,27.6,89.5,,,,
Cc1ccc(C=C2C(=O)C3(C)CCC2C3(C)C)cc1 (racemic) [compound 39],0.0,0.0,Negative,Negative,0.0,0.0,2.0,0.1,3.9,0.2,0.3,3.6,0.7,4.3,0.0,1.8,2.1,
"C[S+](C)[O-] [No. 58, Dimethyl sulfoxide]",,,,,,,,,,,,,,,,,,"In vivo phototoxicity ([1]; in vivo): Negative; In vivo photoallergy ([2]; in vivo): Negative; Average score (%) [4, 11]: 0.4%"
"Nc1ccc(S(N)(=O)=O)cc1 [compound 27, Sulfanilamide]",,,,Positive,,,,,,,,,,,,,,Difference in depletion (under light irradiation - without light irradiation) NAC (%) [9]: 25.5%; NAC Depletion (%) under light irradiation [9]: 26.1%; NAC Depletion (%) without light irradiation [9]: 0.6%; Difference in depletion (under light irradiation - without light irradiation) NAL (%) [10]: −0.2%; NAL Depletion (%) under light irradiation [10]: 0.0%; NAL Depletion (%) without light irradiation [10]: 0.2%
"CCOc1ccc2c(C)cc(=O)oc2c1 [compound 29, 4-Methyl-7-ethoxycoumarin]",,,,Positive,,,,,,,,,,,,,,Difference in depletion (under light irradiation - without light irradiation) NAC (%) [9]: 93.6%; NAC Depletion (%) under light irradiation [9]: 93.6%; NAC Depletion (%) without light irradiation [9]: 0.0%; Difference in depletion (under light irradiation - without light irradiation) NAL (%) [10]: 19.3%; NAL Depletion (%) under light irradiation [10]: 20.3%; NAL Depletion (%) without light irradiation [10]: 1.0%
COc1c2ccoc2cc2oc(=O)ccc12 [compound 31],6.0,0.2,Positive,Negative,0.2,8.4,48.9,0.1,91.9,0.0,0.6,89.6,1.1,90.6,8.2,48.9,49.5,
"CC(=O)c1ccc2ccccc2c1 [compound 37, Methyl β-naphthyl ketone]",,,,,,,,,,,,,,,,,,Difference in depletion (under light irradiation - without light irradiation) NAC (%) [9]: 99.4%; NAC Depletion (%) under light irradiation [9]: 100.0%; NAC Depletion (%) without light irradiation [9]: 0.6%; Difference in depletion (under light irradiation - without light irradiation) NAL (%) [10]: 6.9%; NAL Depletion (%) under light irradiation [10]: 8.4%; NAL Depletion (%) without light irradiation [10]: 1.5%
CC(C)OC(=O)C(C)(C)Oc1ccc(C(=O)c2ccc(Cl)cc2)cc1 [compound 38],37.0,0.0,Positive,,0.0,40.7,67.8,0.0,98.7,0.0,0.0,,0.0,−1178.7,40.7,,,
CC1(C)SC2C(NC(=O)Cc3ccccc3)C(=O)N2C1C(=O)O (centres unmarked) [compound 44],0.4,0.8,Negative,Negative,1.9,1.6,0.9,1.0,1.3,1.1,1.6,1.5,1.4,2.8,−0.2,0.6,2.2,
CC(C)O [compound 47],0.3,0.0,Negative,Negative,1.5,0.3,−0.1,0.3,−0.5,0.5,0.8,1.7,0.0,1.7,−1.2,0.2,1.0,
CCO [compound 50],0.0,0.0,Negative,Negative,1.3,0.0,−0.1,0.1,−0.3,0.3,0.6,0.4,0.0,0.4,−1.3,−0.5,0.2,
C[S+](C)[O-] [compound 58],,,Negative,Negative,,,,,,,,,,,,,,"Difference in depletion (under light irradiation - without light irradiation) NAL (%) [5]: 0.0%; NAL Depletion (%) without light irradiation [5, 13]: 0.0%; NAL Depletion (%) under light irradiation [5, 14]: 0.0%; Difference in depletion (under light irradiation - without light irradiation) NAL (%) ([6]; single compound): −0.2%; NAL Depletion (%) [6, 12]: 0.2%; Difference in depletion (under light irradiation - without light irradiation) Average score (%) [3]: 0.1%; Average score (%) under light irradiation [3, 15]: 0.1%; Average score (%) without light irradiation [3, 15]: 0.0%; Difference in depletion (under light irradiation - without light irradiation) NAC (%) [7]: 0.1%; NAC Depletion (%) without light irradiation [7, 13]: 0.0%; NAC Depletion (%) under light irradiation [7, 14]: 0.2%; Difference in depletion (under light irradiation - without light irradiation) Average score (%) ([4]; single compound): 0.3%; Average score (%) [4, 12]: 0.1%; Difference in depletion (under light irradiation - without light irradiation) NAC (%) ([8]; single compound): 0.7%; NAC Depletion (%) [8, 12]: 0.0%"
Tetrachlorosalicylanilide [compound 12],81.5,5.0,Positive,Positive,4.2,82.1,60.4,31.5,39.4,58.0,35.5,,66.8,−200.9,77.9,,,
